Data: the supplement of paper PMC10307832

What was measured:
Test in all cases: relative viability (nuclei count vs DMSO), 5 days (fraction); higher = more cells survive
[1] = compound: Cn1cc(-c2cnn3c(N)c(Br)c([C@@H]4CCCNC4)nc23)cn1 + CS(=O)(=O)CCNCc1ccc(-c2ccc3ncnc(Nc4ccc(OCc5cccc(F)c5)c(Cl)c4)c3c2)o1 [Lapatinib] (partner 2 µM)
Outline: (§1)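 The day after seeding in 1536-well plates, lung cancer cell lines were treated by pin tool with a single drug, or with a fixed anchor-drug dose together with five library-drug doses (not always all listed) in √10 steps. After 5 days, a combined fix-and-stain solution (final 0.05% Triton X-100, 1% formaldehyde, 1 ug/ml Hoechst) was added. Nuclei counted on 4× images gave relative viability as treated counts over vehicle counts, reported as the median of duplicate plates.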

[2] = compound: Cn1cc(-c2cnn3c(N)c(Br)c([C@@H]4CCCNC4)nc23)cn1 + C[C@@H](Oc1cc(-c2cnn(C3CCNCC3)c2)cnc1N)c1c(Cl)ccc(F)c1Cl [Crizotinib] (partner 1 µM)
Outline: as §1

[3] = compound: Cn1cc(-c2cnn3c(N)c(Br)c([C@@H]4CCCNC4)nc23)cn1 + Cc1cc(Nc2cc(N3CCN(C)CC3)nc(Sc3ccc(NC(=O)C4CC4)cc3)n2)n[nH]1 [Tozasertib] (partner 0.1 µM)
Outline: as §1

[4] = compound: Cn1cc(-c2cnn3c(N)c(Br)c([C@@H]4CCCNC4)nc23)cn1 + Nc1ncn([C@H]2C[C@H](O)[C@@H](CO)O2)c(=O)n1 [Decitabine] (partner 2 µM)
Outline: as §1

Row | Cell Line | relative viability ([1]; first compound 0.05 µM) | relative viability ([1]; first compound 0.1581 µM) | relative viability ([1]; first compound 0.5 µM) | relative viability ([1]; first compound 1.581 µM) | relative viability ([1]; first compound 5 µM) | relative viability ([2]; first compound 0.05 µM) | relative viability ([2]; first compound 0.1581 µM) | relative viability ([2]; first compound 0.5 µM) | relative viability ([2]; first compound 1.581 µM) | relative viability ([2]; first compound 5 µM) | relative viability ([3]; first compound 0.05 µM) | relative viability ([3]; first compound 0.1581 µM) | relative viability ([3]; first compound 0.5 µM) | relative viability ([3]; first compound 1.581 µM) | relative viability ([3]; first compound 5 µM) | relative viability ([4]; first compound 0.05 µM) | relative viability ([4]; first compound 0.1581 µM) | relative viability ([4]; first compound 0.5 µM) | relative viability ([4]; first compound 1.581 µM) | relative viability ([4]; first compound 5 µM)
1 | NCI-H838 | 0.955 | 1.15 | 0.964 | 0.667 | 0.775 | 0.925 | 0.987 | 0.783 | 0.785 | 0.561 | 0.272 | 0.244 | 0.312 | 0.264 | 0.19 | 0.483 | 0.574 | 0.545 | 0.51 | 0.309
2 | NCI-H1355 | 1 | 1.08 | 0.92 | 0.969 | 0.859 | 0.984 | 1.12 | 1.07 | 1.01 | 0.698 | 0.553 | 0.614 | 0.509 | 0.45 | 0.423 | 0.344 | 0.332 | 0.378 | 0.417 | 0.358
3 | NCI-H1437 | 0.802 | 0.975 | 0.741 | 0.563 | 0.505 | 1.09 | 1.05 | 0.967 | 0.693 | 0.849 | 0.414 | 0.46 | 0.402 | 0.361 | 0.381 | 0.556 | 0.695 | 0.655 | 0.623 | 0.21
4 | NCI-H1650 | 0.854 | 0.882 | 0.711 | 0.64 | 0.428 | 1.08 | 0.909 | 1.29 | 0.709 | 0.477 | – | 0.408 | 0.33 | 0.3 | 0.261 | 0.445 | 0.478 | 0.373 | 0.445 | 0.3
5 | NCI-H1651 | 0.733 | 0.874 | 0.708 | 0.494 | 0.367 | 0.902 | 0.985 | 0.806 | 0.821 | 0.569 | 0.586 | 0.721 | 0.641 | 0.429 | 0.176 | 0.566 | 0.648 | 0.613 | 0.552 | 0.385
6 | NCI-H1666 | 0.576 | 0.648 | 0.555 | 0.559 | 0.594 | 1.03 | 0.906 | 1.02 | 1 | 0.869 | 0.608 | 0.589 | 0.606 | 0.522 | 0.511 | 0.629 | 0.699 | 0.719 | 0.698 | 0.713
7 | NCI-H1734 | 1.06 | 1.08 | 0.917 | 0.944 | 0.778 | 0.682 | 0.804 | 0.633 | 0.661 | 0.393 | 0.214 | 0.25 | 0.284 | 0.213 | 0.211 | 0.518 | 0.491 | 0.49 | 0.437 | 0.448
8 | NCI-H1755 | 1.15 | 1.14 | 1.09 | 0.743 | 0.758 | 0.988 | 1.03 | 0.932 | 0.845 | 0.602 | 0.715 | 0.619 | 0.648 | 0.54 | 0.489 | 0.722 | 0.81 | 0.774 | 0.793 | 0.855
9 | NCI-H1915 | 1 | 0.959 | 0.989 | 0.825 | 0.954 | 0.674 | 0.871 | 0.906 | 0.697 | 0.905 | 0.47 | 0.493 | 0.44 | 0.359 | 0.411 | 0.225 | 0.255 | 0.299 | 0.24 | 0.311
10 | NCI-H1944 | 0.823 | 0.832 | 0.761 | 0.605 | 0.577 | 0.951 | 1.21 | 1.09 | 0.931 | 0.717 | 0.263 | 0.273 | 0.255 | 0.241 | 0.21 | 0.439 | 0.468 | 0.448 | 0.482 | 0.356
11 | NCI-H1975 | 0.888 | 0.862 | 0.835 | 0.635 | 0.798 | 1.01 | 1.05 | 0.781 | 0.764 | 0.714 | 0.868 | 0.757 | 0.63 | 0.532 | 0.51 | 0.433 | 0.458 | 0.767 | 0.388 | 0.396
12 | NCI-H1993 | 0.634 | 0.858 | – | 0.739 | 0.759 | 0.76 | 0.878 | – | 0.933 | 0.702 | 0.62 | 0.602 | 0.463 | 0.513 | 0.538 | 0.602 | 0.49 | 0.621 | 0.55 | 0.524
13 | NCI-H2009 | 0.975 | 1.06 | 0.865 | 0.798 | 0.794 | 1.05 | 1.03 | 1.08 | 0.881 | 0.678 | 0.745 | 0.702 | 0.651 | 0.565 | 0.448 | 0.384 | 0.369 | 0.377 | 0.37 | 0.387
14 | NCI-H2023 | 0.978 | 0.739 | 0.416 | 0.258 | 0.127 | 0.702 | 0.428 | 0.436 | 0.272 | 0.172 | 0.361 | 0.254 | 0.238 | 0.15 | 0.122 | 0.228 | 0.219 | 0.21 | 0.167 | 0.127
15 | NCI-H2085 | 0.801 | 0.847 | 0.893 | 0.738 | 0.621 | 0.846 | 1.01 | 0.733 | 0.794 | 0.646 | 0.807 | 0.928 | 0.866 | 0.811 | 0.736 | 0.532 | 0.594 | 0.551 | 0.545 | 0.624
16 | NCI-H2087 | 1.29 | 1.17 | 0.996 | 1.21 | 0.985 | 1.01 | 1.27 | 0.939 | 0.983 | 0.954 | 0.222 | 0.253 | 0.241 | 0.263 | 0.174 | 0.258 | 0.25 | 0.231 | 0.331 | 0.347
